This note sets out measurements from paper PMC3489957 (Bioorganic & medicinal chemistry, 2012).

A word on the IC50: it is the concentration that inhibits the measured activity by half. A high value points to a need for much substance.

The structures appear in SMILES notation.

One series in a line: in vitro. The following applies: human, lymphocytic CEM cells.
Series [1] in a line: Cytotoxicity in Vero cells. It is filed as cell-based. The following applies: African green monkey, Vero kidney cells.
Series [2] is described as follows: Cytotoxicity in uninfected PHA-stimulated human PBM cells. Conditions: uninfected phytohemagglutinin-stimulated PBM cells. It counts as cell-based.

With `CC(C)(C)OC(=O)N1[C@H](CO)CC(F)(F)[C@H]1n1ccc(=O)[nH]c1=O` [Analogue 18a, 1-[(2S,5S)-N-tert-Butyloxycarbonyl-3,3-difluoro-5-(hydroxymethyl)pyrrolidin-2-yl]-uracil], the IC50 (in “in vitro”; in series [1]) was > 100 µM throughout.
As for `CC(C)(C)OC(=O)N1[C@H](CO)CC(F)(F)[C@H]1n1cc(F)c(=O)[nH]c1=O` [Analogue 18d, 1-[(2S,5S)-N-tert-Butyloxycarbonyl-3,3-difluoro-5-(hydroxymethyl)pyrrolidin-2-yl]-5-fluorouracil], the IC50 (in the series “in vitro”; in series [1]) was > 100 µM in each case.
On to `CC(C)(C)OC(=O)N1[C@H](CO)CC(F)(F)[C@@H]1n1ccc(=O)[nH]c1=O` [Analogue 19a, 1-[(2R,5S)-N-tert-butyloxycarbonyl-3,3-difluoro-5-(hydroxymethyl)pyrrolidin-2-yl]-uracil], for which the 50% inhibitory concentration (IC50) in the series “in vitro” was > 100 µM.
Take `CC(C)(C)OC(=O)N1[C@H](CO)CC(F)(F)[C@@H]1n1cc(F)c(=O)[nH]c1=O` [Analogue 19d, 1-[(2R,5S)-N-tert-Butyloxycarbonyl-3,3-difluoro-5-(hydroxymethyl)pyrrolidin-2-yl]-5-fluorouracil]: the IC50 (in the series “in vitro”; in series [1]) was > 100 µM each time.
For `CC(C)(C)OC(=O)N1[C@H](CO)CC(F)(F)[C@@H]1n1cnc2c(Cl)ncnc21` [Analogue 26, 9-[(2R,5S)-N-tert-Butyloxycarbonyl-3,3-difluoro-5-(hydroxymethyl)pyrrolidin-2-yl]-6-chloropurine], the IC50 in series [1] was > 100 µM.
As for `CC(C)(C)OC(=O)N1[C@H](CO)CC(F)(F)[C@H]1n1cnc2c(Cl)ncnc21` [Analogue 27, 9-[(2S,5S)-N-tert-Butyloxycarbonyl-3,3-difluoro-5-(hydroxymethyl)pyrrolidin-2-yl]-6-chloropurine], the IC50 in series [1] was > 100 µM.
The same measure, in the same setting: as for `CC(C)(C)OC(=O)N1[C@H](CO)CC(F)(F)[C@@H]1n1cnc2ncnc(Cl)c21` [Analogue 28, 7-[(2R,5S)-N-tert-Butyloxycarbonyl-3,3-difluoro-5-(hydroxymethyl)pyrrolidin-2-yl]-6-chloropurine], the figure is > 100 µM; as for `CC(C)(C)OC(=O)N1[C@H](CO)CC(F)(F)[C@H]1n1cnc2ncnc(Cl)c21` [Analogue 29, 7-[(2S,5S)-N-tert-Butyloxycarbonyl-3,3-difluoro-5-(hydroxymethyl)pyrrolidin-2-yl]-6-chloropurine], > 100 µM.
For the compound `CC(C)(C)OC(=O)N1[C@H](CO)CC(F)(F)[C@@H]1n1cnc2c(N)ncnc21` [Analogue 30, 9-[(2R,5S)-N-tert-Butyloxycarbonyl-3,3-difluoro-5-(hydroxymethyl)pyrrolidin-2-yl]-adenine], the IC50 (in “in vitro”; in series [2]; in series [1]) was > 100 µM in each case.
Turning to `CC(C)(C)OC(=O)N1[C@H](CO)CC(F)(F)[C@H]1n1cnc2c(N)ncnc21` [Analogue 31, 9-[(2S,5S)-N-tert-Butyloxycarbonyl-3,3-difluoro-5-(hydroxymethyl)pyrrolidin-2-yl]-adenine], the IC50 (in “in vitro”; in series [2]; in series [1]) was > 100 µM throughout.
`CC(C)(C)OC(=O)N1[C@H](CO)CC(F)(F)[C@@H]1n1cnc2ncnc(N)c21` [Analogue 32, 7-[(2R,5S)-N-tert-Butyloxycarbonyl-3,3-difluoro-5-(hydroxymethyl)pyrrolidin-2-yl]-adenine]: the IC50 (in the series “in vitro”; in series [2]; in series [1]) was > 100 µM throughout.
Regarding `CC(C)(C)OC(=O)N1[C@H](CO)CC(F)(F)[C@H]1n1cnc2ncnc(N)c21` [Analogue 33, 7-[(2S,5S)-N-tert-Butyloxycarbonyl-3,3-difluoro-5-(hydroxymethyl)pyrrolidin-2-yl]-adenine], the IC50 (in “in vitro”; in series [2]; in series [1]) was > 100 µM throughout.
